The subject of assay [1] is Aβtotal. The experiment in a line: γ-secretase-modulating activity, Method 2: Aβtotal Alphalisa in supernatant of SKNBE2 cells carrying APP 695-wild type (Table 3b). In kind it is cell-based. To be noted: overnight, read-out: IC50 Aβtot. The procedure:
(§1) Screening was carried out using SKNBE2 cells carrying the APP 695-wild type, grown in Dulbecco's Modified Eagle's Medium/Nutrient mixture F-12 (DMEM/NUT-mix F-12) (HAM) provided by Invitrogen (cat no. 10371-029) containing 5% Serum/Fe supplemented with 1% non-essential amino acids, 1-glutamine 2 mM, Hepes 15 mM, penicillin 50 U/ml (units/ml) en streptomycin 50 μg/ml. Cells were grown to near confluency.
(§2) The screening was performed using a modification of the assay as described in Citron et al (1997) Nature Medicine 3: 67. Briefly, cells were plated in a 384-well plate at 10^4 cells/well in Ultraculture (Lonza, BE12-725F) supplemented with 1% glutamine (Invitrogen, 25030-024), 1% non-essential amino acid (NEAA), penicillin 50 U/ml en streptomycin 50 μg/ml in the presence of test compound at different test concentrations. The cell/compound mixture was incubated overnight at 37° C., 5% CO2. The next day the media were assayed by two sandwich immuno-assays, for Aβ42 and Aβtotal.
(§3) Aβtotal and Aβ42 concentrations were quantified in the cell supernatant using the Aphalisa technology (Perkin Elmer). Alphalisa is a sandwich assay using biotinylated antibody attached to streptavidin coated donorbeads and antibody conjugated to acceptor beads. In the presence of antigen, the beads come into close proximity. The excitation of the donor beads provokes the release of singlet oxygen molecules that trigger a cascade of energy transfer in the acceptor beads, resulting in light emission. To quantify the amount of Aβ42 in the cell supernatant, monoclonal antibody specific to the C-terminus of Aβ42 (JRF/cAβ42/26) was coupled to the receptor beads and biotinylated antibody specific to the N-terminus of Aβ (JRF/AβN/25) was used to react with the donor beads. To quantify the amount of Aβ total in the cell supernatant, monoclonal antibody specific to the N-terminus of Aβ (JRF/AβN/25) was coupled to the receptor beads and biotinylated antibody specific to the mid region of Aβ (biotinylated 4G8) was used to react with the donor beads.
(§4) The sigmoidal dose response curves were analyzed using non-linear regression analysis with percentage of the control plotted against the log concentration of the compound. A 4-parameter equation was used to determine the IC50.
(§5) The IC50 values are shown in Table 3b (Aβtot means Aβtotal).
On the technique in general: In Alpha technology, singlet oxygen from a donor bead excites a nearby acceptor bead.

For assay [2], the system named is Aβ42. Nature of the assay: γ-secretase-modulating activity, Method 2: Aβ42 Alphalisa in supernatant of SKNBE2 cells carrying APP 695-wild type (Table 3b). In kind it is cell-based. The conditions noted are these: overnight. The procedure: as §1, §2, §3
To obtain the values reported in Table 3b, the data were calculated as percentage of the maximum amount of amyloid Beta 42 measured in the absence of the test compound.
as §4, §5

On to `COc1cc(-c2nc(Nc3ccc(F)c(F)c3)n(C)n2)ccc1-n1cnc(C)c1` [Compound 112], for which the 50% inhibitory concentration (IC50) was determined as 9.12 µM in assay [1] and 129 nM in assay [2].
The corresponding values for `COc1cc(-c2nc(Nc3cc(F)ccc3Cl)n(C)n2)ccc1-n1cnc(C)c1` [Compound 113] are greater than 10 µM and 60 nM.
Consider `COc1cc(-c2nc(Nc3cc(Cl)cc(Cl)c3)n(C)n2)ccc1-n1cnc(C)c1` [Compound 115], for which the IC50 in assay [1] was greater than 10 µM; in assay [2] it was 102 nM.
The like results for `COc1cc(-c2nc(Nc3c(F)cccc3F)n(C)n2)ccc1-n1cnc(C)c1` [Compound 116] were, in that order, greater than 10 µM and 200 nM.
The like results for `COc1cc(-c2nc(Nc3cccc(Cl)c3F)n(C)n2)ccc1-n1cnc(C)c1` [Compound 118] were, in that order, greater than 10 µM and 89 nM.
The like results for `COc1cc(-c2nc(Nc3cccc(Cl)c3Cl)n(C)n2)ccc1-n1cnc(C)c1` [Compound 119] were, in that order, greater than 10 µM and 54 nM.
As to `COc1cc(-c2nc(Nc3cc(F)c(F)cc3I)n(C)n2)ccc1-n1cnc(C)c1` [Compound 120], the concentration for half-maximal inhibition (IC50) in assay [1] was greater than 10 µM; in assay [2] it was 123 nM.
With `COc1cc(-c2nc(Nc3cc(F)c(F)cc3Cl)n(C)n2)ccc1-n1cnc(C)c1` [Compound 121], the 50% inhibitory concentration (IC50) in assay [1] is greater than 10 µM; in assay [2], 123 nM.
The corresponding values for `COc1cc(-c2nc(Nc3c(F)ccc(Cl)c3F)n(C)n2)ccc1-n1cnc(C)c1` [Compound 122] are greater than 15 µM and 66 nM.
The corresponding values for `COc1cc(-c2nc(Nc3cccc(F)c3F)n(C)n2)ccc1-n1cnc(C)c1` [Compound 124] are greater than 10 µM and 151 nM.
The corresponding values for `COc1cc(-c2nc(Nc3ccc(Cl)cc3F)n(C)n2)ccc1-n1cnc(C)c1` [Compound 126] are greater than 10 µM and 162 nM.
Consider `COc1cc(-c2nc(Nc3c(F)ccc(Br)c3F)n(C)n2)ccc1-n1cnc(C)c1` [Compound 127], for which the 50% inhibitory concentration (IC50) in assay [1] was greater than 10 µM; in assay [2], 66 nM.
The corresponding values for `COc1cc(-c2nc(Nc3cc(C(F)(F)F)ccc3C)n(C)n2)ccc1-n1cnc(C)c1` [Compound 131] are 6.31 µM and 8 nM.
The corresponding values for `COc1cc(-c2nc(Nc3cccc(C(F)(F)F)c3)n(C(C)C)n2)ccc1-n1cnc(C)c1` [Compound 133] are 2.34 µM and 31 nM.
The corresponding values for `COc1cc(-c2nc(Nc3ccc(C(F)(F)F)cc3F)n(C)n2)ccc1-n1cnc(C)c1` [Compound 134] are greater than 10 µM and 110 nM.
Take `CCn1nc(-c2ccc(-n3cnc(C)c3)c(OC)c2)nc1Nc1cc(C(F)(F)F)ccc1F` [Compound 135]: the concentration for half-maximal inhibition (IC50) was greater than 10 µM in assay [1] and 26 nM in assay [2].
The like results for `COc1cc(-c2nc(Nc3cc(C(F)(F)F)ccc3F)n(CCC#N)n2)ccc1-n1cnc(C)c1` [Compound 137] were, in that order, greater than 10 µM and 41 nM.
The like results for `Cc1cn(-c2ccc(-c3nc(Nc4cc(C(F)(F)F)ccc4F)n(C)n3)cc2OC(F)(F)F)cn1` [Compound 139] were, in that order, greater than 10 µM and 794 nM.
The corresponding values for `COc1cc(-c2nc(Nc3cc(F)c(C(F)(F)F)cc3F)n(C)n2)ccc1-n1cnc(C)c1` [Compound 141] are greater than 10 µM and 47 nM.
Consider `COc1cc(-c2nc(Nc3cc(F)c(F)cc3C(F)(F)F)n(C)n2)ccc1-n1cnc(C)c1` [Compound 142], for which the half-maximal inhibitory concentration (IC50) in assay [1] is greater than 10 µM; in assay [2] it was 59 nM.
The corresponding values for `COc1cc(-c2nc(Nc3cc(Cl)ccc3C(F)(F)F)n(C)n2)ccc1-n1cnc(C)c1` [Compound 143] are greater than 10 µM and 30 nM.
The like results for `COc1cc(-c2nc(Nc3cccc(C(F)(F)F)c3)n(CC(F)(F)F)n2)ccc1-n1cnc(C)c1` [Compound 145] were, in that order, 2.24 µM and 38 nM.
Turning to `CCn1nc(-c2ccc(-n3cnc(C)c3)c(OC)c2)nc1Nc1ccccc1C(F)(F)F` [Compound 147], the IC50 in assay [1] is greater than 10 µM; in assay [2], 41 nM.
`Cc1cn(-c2ccc(-c3nc(Nc4ccc(F)cc4C(F)(F)F)n(C)n3)cc2)cn1` [Compound 149]: the results for the half-inhibitory concentration (IC50) in assay [1] and in assay [2] were greater than 10 µM and 1700 nM, respectively.
The like results for `COc1cc(-c2nc(Nc3ccc(C(F)(F)F)cc3)n(C)n2)ccc1-n1cnc(C)c1` [Compound 151] were, in that order, 4.07 µM and 27 nM.
The corresponding values for `COc1cc(-c2nc(Nc3cccc(F)c3C(F)(F)F)n(C)n2)ccc1-n1cnc(C)c1` [Compound 155] are greater than 10 µM and 95 nM.
Turning to `COc1cc(-c2nc(Nc3ccc(Cl)cc3C(F)(F)F)n(C)n2)ccc1-n1cnc(C)c1` [Compound 156], the concentration for half-maximal inhibition (IC50) is greater than 10 µM in assay [1] and 33 nM in assay [2].
The like results for `COc1cc(-c2nc(Nc3cc(F)cc(C(F)(F)F)c3)n(C)n2)ccc1-n1cnc(C)c1` [Compound 159] were, in that order, greater than 10 µM and 21 nM.
Turning to `COc1nc(-c2nc(Nc3cc(C(F)(F)F)ccc3Cl)n(C)n2)ccc1-n1cnc(C)c1` [Compound 160], the IC50 in assay [1] is greater than 10 µM; in assay [2] it was 6 nM.
The corresponding values for `COc1cc(-c2nc(Nc3cccc(C(F)(F)F)c3Cl)n(C)n2)ccc1-n1cnc(C)c1` [Compound 163] are greater than 10 µM and 62 nM.
The like results for `COc1cc(-c2nc(Nc3cccc(C(F)(F)F)c3C)n(C)n2)ccc1-n1cnc(C)c1` [Compound 164] were, in that order, greater than 10 µM and 30 nM.
The like results for `COc1cc(-c2nc3n(n2)CCOC3c2cc(OC(F)(F)F)ccc2F)ccc1-n1cnc(C)c1` (stereo not drawn) [Compound 165] were, in that order, greater than 10 µM and 138 nM.
In the case of `COc1cc(-c2nc3n(n2)CCOC3c2ccc(F)cc2C)ccc1-n1cnc(C)c1` (stereo not drawn) [Compound 166], the figures for the half-maximal inhibitory concentration (IC50) in assay [1] and in assay [2] were greater than 10 µM and 65 nM, respectively.
The like results for `COc1cc(-c2nc(Nc3cc(F)ccc3C(F)(F)F)n(C)n2)ccc1-n1cnc(C)c1` [Compound 168] were, in that order, greater than 10 µM and 71 nM.
The like results for `Cc1cn(-c2ccc(-c3nc(Nc4ccc(F)cc4C(F)(F)F)n(C)n3)nc2)cn1` [Compound 170] were, in that order, greater than 10 µM and 3240 nM.
Regarding `COc1nc(-c2nc(Nc3ccc(F)c(C(F)(F)F)c3)n(C)n2)ccc1-n1cnc(C)c1` [Compound 171], the half-maximal inhibitory concentration (IC50) in assay [1] is greater than 15 µM; in assay [2], 42 nM.
With `COc1cc(-c2nc(Nc3cc(C(F)(F)F)c(F)cc3F)n(C)n2)ccc1-n1cnc(C)c1` [Compound 172], the IC50 in assay [1] was greater than 10 µM; in assay [2] it was 62 nM.
The like results for `COc1cc(-c2nc(Nc3cc(F)ccc3C)n(C)n2)ccc1-n1cnc(C)c1` [Compound 173] were, in that order, greater than 10 µM and 60 nM.
`COc1cc(-c2nc(Nc3cc(Cl)ccc3C)n(C)n2)ccc1-n1cnc(C)c1` [Compound 174]: the IC50 is 7.41 µM in assay [1] and 20 nM in assay [2].
The corresponding values for `COc1cc(-c2nc(Nc3ccccc3C(F)(F)F)n(C(C)C)n2)ccc1-n1cnc(C)c1` [Compound 176] are greater than 10 µM and 46 nM.
The corresponding values for `COc1cc(-c2nc(Nc3cc(C(F)(F)F)ccc3F)n(C(C)C)n2)ccc1-n1cnc(C)c1` [Compound 178] are 7.94 µM and 21 nM.
The corresponding values for `COc1cc(-c2nc(Nc3cc(Cl)ccc3OC(F)(F)F)n(C)n2)ccc1-n1cnc(C)c1` [Compound 183] are greater than 10 µM and 13 nM.
With `COc1cccc(Nc2nc(-c3ccc(-n4cnc(C)c4)c(OC)c3)nn2C)c1` [Compound 186], the IC50 in assay [1] is greater than 10 µM; in assay [2], 78 nM.
The like results for `COc1ccccc1Nc1nc(-c2ccc(-n3cnc(C)c3)c(OC)c2)nn1C` [Compound 187] were, in that order, greater than 10 µM and 178 nM.
The corresponding values for `COc1cc(Cl)ccc1Nc1nc(-c2ccc(-n3cnc(C)c3)c(OC)c2)nn1C` [Compound 188] are greater than 10 µM and 178 nM.
The like results for `COc1ccc(Cl)c(Nc2nc(-c3ccc(-n4cnc(C)c4)c(OC)c3)nn2C)c1` [Compound 189] were, in that order, greater than 10 µM and 19 nM.
With `COc1ccc(F)cc1Nc1nc(-c2ccc(-n3cnc(C)c3)c(OC)c2)nn1C` [Compound 190], the IC50 was greater than 10 µM in assay [1] and 214 nM in assay [2].
Turning to `COc1cc(Nc2nc(-c3ccc(-n4cnc(C)c4)c(OC)c3)nn2C)ccc1Cl` [Compound 191], the IC50 in assay [1] is greater than 10 µM; in assay [2] it was 28 nM.

For orientation: IC50 means the concentration that gives 50% inhibition.

Values taken from patent US8946266B2, “Substituted triazole and imidazole derivatives as gamma secretase modulators” (Janssen Pharmaceuticals, Inc., priority 2009, dated 2015).
